Reference: patent publication US12122763B2, “Substituted piperidines for androgen receptor degradation” (UBIX THERAPEUTICS, INC., priority 2020, dated 2024)

Molecular target: T1, Androgen Receptor (AR) protein (Homo sapiens, UniProt P10275, T878A)
T1 construct: endogenous in cells; host or cells: LNCaP
Experiment: Androgen Receptor (AR) protein degradation assay in LNCaP cells, western blotting
Type: cell-based
Details: 20 h; for inhibition at 0.01 µM: 0.01 μM compound; for inhibition at 0.1 µM: 0.1 μM compound; for inhibition at 1 µM: 1 μM compound; for inhibition at 10 µM: 10 μM compound
Outline: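 LNCaP prostate cancer cells were cultured 3 days, then treated with compound for 20 h. Lysates in 1% SDS buffer were normalised by BCA, and 8 μg protein was run on 4–12% Bis-Tris gels. AR was immunoblotted with chemiluminescence, using GAPDH/β-actin as loading controls.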

T1 sequence (P10275 whole entry T878A): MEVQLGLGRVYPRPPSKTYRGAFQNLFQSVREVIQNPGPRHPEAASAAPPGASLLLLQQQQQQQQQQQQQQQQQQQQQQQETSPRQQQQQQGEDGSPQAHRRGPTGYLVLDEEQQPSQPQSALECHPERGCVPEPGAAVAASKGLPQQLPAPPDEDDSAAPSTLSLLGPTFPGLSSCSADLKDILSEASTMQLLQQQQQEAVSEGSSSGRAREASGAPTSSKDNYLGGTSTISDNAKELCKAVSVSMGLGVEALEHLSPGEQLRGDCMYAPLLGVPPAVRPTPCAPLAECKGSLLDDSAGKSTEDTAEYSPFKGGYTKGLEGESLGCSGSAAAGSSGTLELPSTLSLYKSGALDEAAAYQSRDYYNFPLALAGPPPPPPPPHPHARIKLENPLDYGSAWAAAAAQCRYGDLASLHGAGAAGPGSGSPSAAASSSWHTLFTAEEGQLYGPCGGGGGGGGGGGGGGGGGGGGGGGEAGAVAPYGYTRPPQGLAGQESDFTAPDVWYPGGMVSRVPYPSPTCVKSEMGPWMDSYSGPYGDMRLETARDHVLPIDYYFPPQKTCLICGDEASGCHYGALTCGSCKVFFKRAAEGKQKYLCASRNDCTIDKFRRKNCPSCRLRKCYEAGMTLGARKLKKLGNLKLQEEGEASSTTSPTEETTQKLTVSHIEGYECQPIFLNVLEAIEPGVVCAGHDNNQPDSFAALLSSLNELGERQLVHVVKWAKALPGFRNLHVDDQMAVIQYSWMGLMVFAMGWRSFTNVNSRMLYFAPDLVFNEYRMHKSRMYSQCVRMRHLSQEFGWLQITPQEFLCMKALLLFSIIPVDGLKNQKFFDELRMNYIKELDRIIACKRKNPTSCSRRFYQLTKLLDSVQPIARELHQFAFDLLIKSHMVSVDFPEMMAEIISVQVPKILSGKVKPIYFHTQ
T1 sequence (Q96SW2 whole entry partner): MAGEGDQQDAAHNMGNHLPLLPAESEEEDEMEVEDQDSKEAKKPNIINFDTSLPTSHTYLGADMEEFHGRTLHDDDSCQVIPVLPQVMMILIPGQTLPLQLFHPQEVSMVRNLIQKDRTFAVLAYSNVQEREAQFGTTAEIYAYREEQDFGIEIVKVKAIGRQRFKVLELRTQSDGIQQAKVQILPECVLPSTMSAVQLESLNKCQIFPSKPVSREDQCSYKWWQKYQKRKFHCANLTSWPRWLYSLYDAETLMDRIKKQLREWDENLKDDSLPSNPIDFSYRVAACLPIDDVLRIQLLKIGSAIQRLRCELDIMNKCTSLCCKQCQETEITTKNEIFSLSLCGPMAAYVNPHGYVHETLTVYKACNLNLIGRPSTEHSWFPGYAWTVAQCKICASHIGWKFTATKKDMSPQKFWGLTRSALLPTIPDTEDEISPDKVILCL

Structure (SMILES) | inhibition at 0.01 µM | inhibition at 0.1 µM | inhibition at 1 µM | inhibition at 10 µM
N#Cc1ccc(N2CCC(C(=O)Nc3ccc(OC4CN(CC5CCN(c6ccc7c(c6)C(=O)N(C6CCC(=O)NC6=O)C7=O)CC5)C4)cn3)CC2)cc1C(F)(F)F (centres unmarked) [Example 173, 1-(4-cyano-3-(trifluoromethyl)phenyl)-N-(5-((1-((1-(2-(2,6-dioxopiperidin-3-yl)-1,3-dioxoisoindolin-5-yl)piperidin-4-yl)methyl)azetidin-3-yl)oxy)pyridin-2-yl)piperidine-4-carboxamide] | 58% | 90% | 92% | 
N#Cc1ccc(N2CCC(C(=O)Nc3ccc(OCCC4CCN(CC5CCN(c6ccc7c(c6)C(=O)N(C6CCC(=O)NC6=O)C7=O)CC5)CC4)cn3)CC2)cc1C(F)(F)F (centres unmarked) [Example 175, 1-(4-cyano-3-(trifluoromethyl)phenyl)-N-(5-(2-(1-((1-(2-(2,6-dioxopiperidin-3-yl)-1,3-dioxoisoindolin-5-yl)piperidin-4-yl)methyl)piperidin-4-yl)ethoxy)pyridin-2-yl)piperidine-4-carboxamide] | 70% | 95% | 97% | 
N#Cc1ccc(N2CCC(C(=O)Nc3ccc(N4CCC(CN5CCN(CC6CCN(c7ccc8c(c7)C(=O)N(C7CCC(=O)NC7=O)C8=O)CC6)CC5)CC4)cn3)CC2)cc1Cl (centres unmarked) [Example 7, 1-(3-chloro-4-cyanophenyl)-N-(5-(4-((4-((1-(2-(2,6-dioxopiperidin-3-yl)-1,3-dioxoisoindolin-5-yl)piperidin-4-yl)methyl)piperazin-1-yl)methyl)piperidin-1-yl)pyridin-2-yl)piperidine-4-carboxamide] | 87% | 99% | 99% | 94%
N#Cc1ccc(N2CCC(C(=O)Nc3ccc(N4CCC(O)(CCN5CCN(c6ccc7c(c6)C(=O)N(C6CCC(=O)NC6=O)C7=O)CC5)CC4)cn3)CC2)cc1C(F)(F)F (centres unmarked) [Example 153, 1-(4-cyano-3-(trifluoromethyl)phenyl)-N-(5-(4-(2-(4-(2-(2,6-dioxopiperidin-3-yl)-1,3-dioxoisoindolin-5-yl)piperazin-1-yl)ethyl)-4-hydroxypiperidin-1-yl)pyridin-2-yl)piperidine-4-carboxamide] | 56% | 95% | 97% | 
N#Cc1ccc(N2CCC(C(=O)Nc3ccc(N4CCC(CN5CCN(C6CCN(c7cccc8c7C(=O)N(C7CCC(=O)NC7=O)C8=O)CC6)CC5)CC4)cn3)CC2)cc1C(F)(F)F (centres unmarked) [Example 76, 1-(4-cyano-3-(trifluoromethyl)phenyl)-N-(5-(4-((4-(1-(2-(2,6-dioxopiperidin-3-yl)-1,3-dioxoisoindolin-4-yl)piperidin-4-yl)piperazin-1-yl)methyl)piperidin-1-yl)pyridin-2-yl)piperidine-4-carboxamide] | 36% | 85% | 88% | 
N#Cc1ccc(N2CCC(C(=O)Nc3ccc(N4CC(CN5CCC(CN6CCN(c7cc8c(cc7F)C(=O)N(C7CCC(=O)NC7=O)C8=O)CC6)CC5)C4)cn3)CC2)cc1C(F)(F)F (centres unmarked) [Example 191, 1-(4-cyano-3-(trifluoromethyl)phenyl)-N-(5-(3-((4-((4-(2-(2,6-dioxopiperidin-3-yl)-6-fluoro-1,3-dioxoisoindolin-5-yl)piperazin-1-yl)methyl)piperidin-1-yl)methyl)azetidin-1-yl)pyridin-2-yl)piperidine-4-carboxamide] | 3% | 84% |  | 
N#Cc1ccc(N2CCC(C(=O)Nc3ccc(N4CCC(CN5CCC6(CC5)CN(c5ccc7c(c5)C(=O)N(C5CCC(=O)NC5=O)C7=O)C6)CC4)cn3)CC2)cc1Cl (centres unmarked) [Example 64, 1-(3-chloro-4-cyanophenyl)-N-(5-(4-((2-(2-(2,6-dioxopiperidin-3-yl)-1,3-dioxoisoindolin-5-yl)-2,7-diazaspiro[3.5]nonan-7-yl)methyl)piperidin-1-yl)pyridin-2-yl)piperidine-4-carboxamide] | 71.5% | 97% | 98.5% | 98.5%
N#Cc1ccc(N2CCC(C(=O)Nc3ccc(N4CCN(CCCCOc5ccc6c(c5)C(=O)N(C5CCC(=O)NC5=O)C6=O)CC4)cn3)CC2)cc1C(F)(F)F (centres unmarked) [Example 115, 1-(4-cyano-3-(trifluoromethyl)phenyl)-N-(5-(4-(4-((2-(2,6-dioxopiperidin-3-yl)-1,3-dioxoisoindolin-5-yl)oxy)butyl)piperazin-1-yl)pyridin-2-yl)piperidine-4-carboxamide] | 18% | 89% | 87% | 
N#Cc1ccc(N2CCC(C(=O)Nc3ccc(N4CCN(CCCCCOc5ccc6c(c5)C(=O)N(C5CCC(=O)NC5=O)C6=O)CC4)cn3)CC2)cc1Cl (centres unmarked) [Example 114, 1-(3-chloro-4-cyanophenyl)-N-(5-(4-(5-((2-(2,6-dioxopiperidin-3-yl)-1,3-dioxoisoindolin-5-yl)oxy)pentyl)piperazin-1-yl)pyridin-2-yl)piperidine-4-carboxamide] | 41% | 89% | 91% | 
N#Cc1ccc(N2CCC(C(=O)Nc3ccc(N4CCC(CN5CC6(C5)CN(c5ccc7c(c5)C(=O)N(C5CCC(=O)NC5=O)C7=O)C6)CC4)cn3)CC2)cc1C(F)(F)F (centres unmarked) [Example 66, 1-(4-cyano-3-(trifluoromethyl)phenyl)-N-(5-(4-((6-(2-(2,6-dioxopiperidin-3-yl)-1,3-dioxoisoindolin-5-yl)-2,6-diazaspiro[3.3]heptan-2-yl)methyl)piperidin-1-yl)pyridin-2-yl)piperidine-4-carboxamide] | 75.5% | 95.5% | 97% | 94%
N#Cc1ccc(N2CCC(C(=O)Nc3ncc(N4CCC(CN5CCN(CC6CCN(c7cc8c(cc7F)C(=O)N(C7CCC(=O)NC7=O)C8=O)CC6)CC5)CC4)cn3)CC2)cc1C(F)(F)F (centres unmarked) [Example 159, 1-(4-cyano-3-(trifluoromethyl)phenyl)-N-(5-(4-((4-((1-(2-(2,6-dioxopiperidin-3-yl)-6-fluoro-1,3-dioxoisoindolin-5-yl)piperidin-4-yl)methyl)piperazin-1-yl)methyl)piperidin-1-yl)pyrimidin-2-yl)piperidine-4-carboxamide] | -16% | -5% | 84% | 
N#Cc1ccc(N2CCC(C(=O)Nc3ncc(N4CCC(CN5CCN(C[C@H]6CCN(c7ccc8c(c7)C(=O)N(C7CCC(=O)NC7=O)C8=O)C6)CC5)CC4)cn3)CC2)cc1C(F)(F)F (stereo partly drawn) [Example 158, 1-(4-cyano-3-(trifluoromethyl)phenyl)-N-(5-(4-((4-(((3R)-1-(2-(2,6-dioxopiperidin-3-yl)-1,3-dioxoisoindolin-5-yl)pyrrolidin-3-yl)methyl)piperazin-1-yl)methyl)piperidin-1-yl)pyrimidin-2-yl)piperidine-4-carboxamide] | -7% | 27% | 65% | 
N#Cc1ccc(N2CCC(C(=O)Nc3ccc(N4CCC(CN5CCN(CC6CCN(c7cc8c(cc7F)C(=O)N(C7CCC(=O)NC7=O)C8=O)CC6)CC5)CC4)cn3)CC2)cc1C(F)(F)F (centres unmarked) [Example 18, 1-(4-cyano-3-(trifluoromethyl)phenyl)-N-(5-(4-((4-((1-(2-(2,6-dioxopiperidin-3-yl)-6-fluoro-1,3-dioxoisoindolin-5-yl)piperidin-4-yl)methyl)piperazin-1-yl)methyl)piperidin-1-yl)pyridin-2-yl)piperidine-4-carboxamide] | 36% | 93% | 95% | 
N#Cc1ccc(N2CCC(C(=O)Nc3ccc(OCC4CCN(CC5CCN(c6cc7c(cc6F)C(=O)N(C6CCC(=O)NC6=O)C7=O)CC5)CC4)cn3)CC2)cc1C(F)(F)F (centres unmarked) [Example 181, 1-(4-cyano-3-(trifluoromethyl)phenyl)-N-(5-((1-((1-(2-(2,6-dioxopiperidin-3-yl)-6-fluoro-1,3-dioxoisoindolin-5-yl)piperidin-4-yl)methyl)piperidin-4-yl)methoxy)pyridin-2-yl)piperidine-4-carboxamide] | 75% | 93% | 97% | 
N#Cc1ccc(N2CCC(C(=O)Nc3ccc(N4CCC(OCCN5CCN(c6ccc7c(c6)C(=O)N(C6CCC(=O)NC6=O)C7=O)CC5)CC4)cn3)CC2)cc1Cl (centres unmarked) [Example 151, 1-(3-chloro-4-cyanophenyl)-N-(5-(4-(2-(4-(2-(2,6-dioxopiperidin-3-yl)-1,3-dioxoisoindolin-5-yl)piperazin-1-yl)ethoxy)piperidin-1-yl)pyridin-2-yl)piperidine-4-carboxamide] | -14% | 76% | 92% | 
N#Cc1ccc(N2CCC(C(=O)Nc3ccc(OCC4CN(CC5CCN(c6ccc7c(c6)C(=O)N(C6CCC(=O)NC6=O)C7=O)CC5)C4)cn3)CC2)cc1C(F)(F)F (centres unmarked) [Example 185, 1-(4-cyano-3-(trifluoromethyl)phenyl)-N-(5-((1-((1-(2-(2,6-dioxopiperidin-3-yl)-1,3-dioxoisoindolin-5-yl)piperidin-4-yl)methyl)azetidin-3-yl)methoxy)pyridin-2-yl)piperidine-4-carboxamide] | 85% | 97% | 99% | 
N#Cc1ccc(N2CCC(C(=O)Nc3ccc(N4CCC(CN5CC6(CCN(c7ccc8c(=O)n(C9CCC(=O)NC9=O)nnc8c7)CC6)C5)CC4)cn3)CC2)cc1C(F)(F)F (centres unmarked) [Example 52, 1-(4-cyano-3-(trifluoromethyl)phenyl)-N-(5-(4-((7-(3-(2,6-dioxopiperidin-3-yl)-4-oxo-3,4-dihydrobenzo[d][1,2,3]triazin-7-yl)-2,7-diazaspiro[3.5]nonan-2-yl)methyl)piperidin-1-yl)pyridin-2-yl)piperidine-4-carboxamide] | 50% | 91% | 97% | 
